Source: publication PMC7684313, “In vitro and in vivo pharmacological activity of minor cannabinoids isolated from Cannabis sativa” (Scientific Reports, 2020)
Entries after “also recorded” stand apart in the source; their conditions may differ. Read-outs that look alike come from different tables or passages of the source. Marks after values point to notes of the source that are not given here.

Key:
[1] = target: T1, hCB2R (Homo sapiens, UniProt P34972); assay: Ligand bias between cAMP inhibition and βarrestin2 recruitment at hCB2R (operational model); format: cell-based; parameters: expressed in transfected cells; membranes; conditions: ∆∆LogR > 0 bias for inhibition of cAMP, < 0 bias for βarrestin2; CP55,940 reference agonist
T1 sequence (P34972 whole entry): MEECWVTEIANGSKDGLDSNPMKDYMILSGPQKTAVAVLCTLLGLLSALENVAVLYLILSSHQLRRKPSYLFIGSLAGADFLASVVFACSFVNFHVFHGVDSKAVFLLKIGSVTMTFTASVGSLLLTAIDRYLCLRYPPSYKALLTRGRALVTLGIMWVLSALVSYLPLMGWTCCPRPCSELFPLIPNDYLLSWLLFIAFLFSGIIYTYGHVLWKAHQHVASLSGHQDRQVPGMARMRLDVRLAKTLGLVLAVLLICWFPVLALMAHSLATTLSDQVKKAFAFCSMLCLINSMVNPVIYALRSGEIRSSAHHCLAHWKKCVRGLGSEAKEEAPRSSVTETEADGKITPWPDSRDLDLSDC
Procedure: (§1) Figure 8 Analysis of ligand bias for phytocannabinoids at hCB1R (a) and hCB2R (b).
(§2) Concentration–response curves (CRC) were fit using non-linear regression with variable slope (4 parameters) and used to calculate EC50, Emin, and Emax (GraphPad, Prism, v. 8.0). […] In vivo data are presented as % MPE for catalepsy (MPE = 60 s) and anti-nociception (MPE = 20 s), °C for body temperature, and distance travelled (m) and % time in the centre quadrant in 5 min for OFT. Post-hoc analyses were performed using Tukey’s (one-way ANOVA) test. Homogeneity of variance was confirmed using Bartlett’s test. All data were evaluated for possible outliers using Grubb’s test in GraphPad.

[2] = test system: C57BL/6 mice; assay: Body temperature (tetrad); format: in vivo
Procedure: (§3) Asterisk colour matches the treatment group assessed.
as §2

[3] = target: T1, hCB2R; assay: [^3H]CP55,940 displacement from hCB2R CHO cell membranes; conditions: for hCB2R Emin: bottom of the concentration–response curve of [^3H]CP55,940 displacement, %CP55,940 response, mean ± SEM; for extent of [^3H]CP55,940 displacement from hCB2R, in words: concentration range 0.1 nM–10 µM
[4] = test system: C57BL/6 mice; assay: Catalepsy in the ring holding assay (tetrad); format: in vivo; conditions: MPE 60 s = 100%
Procedure: as §3, §2

[5] = target: T1, hCB2R; assay: hCB2R-dependent inhibition of FSK-stimulated cAMP accumulation (HitHunter CHO cells); format: cell-based; parameters: expressed in transfected cells; membranes; conditions: for Emax: CHO; for agonist activity in hCB2R cAMP inhibition, in words: 0.1 nM–10 µM, relative to CP55,940
[6] = target: T1, hCB2R; assay: hCB2R-dependent recruitment of βarrestin2 (PathHunter CHO cells); format: cell-based; parameters: expressed in transfected cells; membranes; conditions: for activity in hCB2R βarrestin2 recruitment, in words: 0.1 nM–10 µM, relative to CP55,940; for Emax: CHO
[7] = test system: C57BL/6 mice; assay: Nociception in the tail flick assay (tetrad); format: in vivo
Procedure: as §3, §2

[8] = target: T2, hCB1R (Homo sapiens, UniProt P21554); assay: biochemical; format: binding
T2 construct: expressed in transfected cells; membranes
T2 sequence (P21554 whole entry): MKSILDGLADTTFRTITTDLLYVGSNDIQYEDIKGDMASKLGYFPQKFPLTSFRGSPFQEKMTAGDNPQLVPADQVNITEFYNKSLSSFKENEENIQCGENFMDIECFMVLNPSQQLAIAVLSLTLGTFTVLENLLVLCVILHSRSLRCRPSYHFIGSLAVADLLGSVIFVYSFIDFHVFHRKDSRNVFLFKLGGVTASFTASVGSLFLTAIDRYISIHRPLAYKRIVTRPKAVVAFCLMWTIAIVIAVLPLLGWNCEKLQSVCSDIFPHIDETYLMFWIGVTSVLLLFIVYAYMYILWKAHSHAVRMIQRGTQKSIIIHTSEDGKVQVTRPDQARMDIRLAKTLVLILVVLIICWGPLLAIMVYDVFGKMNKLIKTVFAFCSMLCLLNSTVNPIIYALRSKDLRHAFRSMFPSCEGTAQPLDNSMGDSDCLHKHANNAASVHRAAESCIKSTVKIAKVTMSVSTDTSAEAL

[9] = target: T2, hCB1R; assay: cell-based; format: cell-based; conditions: for Emax: CHO, read-out: hCB1R Emax, inhibition of FSK-stimulated cAMP accumulation
[10] = test system: C57BL/6 mice; assay: Tetrad of assays, overall
[11] = target: T2, hCB1R; assay: cell-based; conditions: for Emax: CHO, read-out: hCB1R Emax, recruitment of βarrestin2
[12] = target: T1, hCB2R; assay: biochemical
[13] = test system: C57BL/6 mice; assay: Time in the centre quadrant of the OFT (anxiety-like behaviour); format: in vivo; conditions: 1 h post-injection
Procedure: as §3, §2

[14] = test system: C57BL/6 mice; assay: Locomotion in the open field test (OFT); format: in vivo
Procedure: as §3, §2

[15] = target: T2, hCB1R; assay: Ligand bias between cAMP inhibition and βarrestin2 recruitment at hCB1R (operational model); format: cell-based; conditions: ∆∆LogR > 0 bias for inhibition of cAMP, < 0 bias for βarrestin2; CP55,940 reference agonist
Procedure: as §1, §2

[16] = dose range 0.1–10 mg/kg i.p., 15 min post-injection
[17] = HitHunter CHO hCB1R cells, 90 min, 95% CI in brackets, read-out: hCB1R EC50, inhibition of FSK-stimulated cAMP accumulation
[18] = 10 mg/kg i.p., 1 h post-injection
[19] = PathHunter CHO hCB1R cells, 90 min, 95% CI in brackets, read-out: hCB1R EC50, recruitment of βarrestin2
[20] = HitHunter CHO hCB2R cells, 90 min, 95% CI in brackets, read-out: hCB2R EC50, inhibition of FSK-stimulated cAMP accumulation
[21] = PathHunter CHO hCB2R cells, 90 min, 95% CI in brackets, read-out: hCB2R EC50, recruitment of βarrestin2

CCCCCc1cc(O)c2c(c1)OC(C)(C)[C@@H]1CCC(C)=C[C@@H]21 [∆^9-THC, ∆^9-tetrahydrocannabinol, reference compound]
ligand bias at hCB2R (∆∆LogR), in words [1]: bias for inhibition of cAMP relative to βarrestin2 | effect on body temperature, in words ([2]; 3 and 10 mg/kg i.p.): decreased body temperature | hCB2R Emin [3]: 7.4 ± 4.4% | extent of [^3H]CP55,940 displacement from hCB2R, in words [3]: displaced [^3H]CP55,940 from hCB2R to an extent that was not different from CP55,940 | cataleptic response, % of maximum possible effect (MPE) ([4]; 3 mg/kg i.p.): 17% | cataleptic response, % of maximum possible effect (MPE) ([4]; 10 mg/kg i.p.): 100% | Emax [5]: 76 ± 8.6% | activity in hCB2R βarrestin2 recruitment, in words [6]: modest agonist activity | Emax [6]: 46 ± 4.9% | anti-nociceptive effect (tail flick latency), in words [7, 16]: dose-dependent increase in anti-nociceptive effects

C=C(C)[C@@H]1CCC(C)=C[C@H]1c1c(O)cc(CCCCC)cc1O [CBD, cannabidiol, reference compound]
extent of [^3H]CP55,940 displacement from hCB1R, in words [8]: weakly displaced [^3H]CP55,940 at concentrations ≥ 1 µM | Emax [9]: 26 ± 1.6% | effects in the tetrad of assays, in words ([10]; between 1 and 10 mg/kg): no effects | hCB2R Emin [3]: 54 ± 9.3*^ % | Emax [11]: 1 ± 1.6% | Emax [5]: 61 ± 2.3% | activity in hCB2R βarrestin2 recruitment, in words [6]: modest agonist activity | Emax [6]: 23 ± 2.8%

CCCCCc1cc2c(c(O)c1C(=O)O)[C@@H]1C=C(C)CC[C@H]1C(C)(C)O2 [∆^9-THCa, ∆^9-tetrahydrocannabinolic acid]
Ki [8]: 620 nM | extent of [^3H]CP55,940 displacement from hCB1R, in words [8]: partially displaced | hCB1R Emin [8]: 67 ± 11*^ % | Ki [12]: 1.3 nM | EC50 [9]: > 10000 nM | agonist activity in hCB1R cAMP inhibition, in words [9]: weak partial agonist | Emax [9]: 35 ± 11% | hCB2R Emin [3]: 49 ± 7.2*^ % | time in the central quadrant of the OFT (modelled anxiolytic effect), in words ([13]; 10 mg/kg i.p.): anxiolytic-like effects | total locomotion in the OFT, in words ([14]; 3 and 10 mg/kg i.p.): hypolocomotive effects | EC50 [11]: > 10000 nM | Emax [11]: 4.1 ± 1.5% | EC50 [5]: 1800 nM | agonist activity in hCB2R cAMP inhibition, in words [5]: weakly potent agonist | Emax [5]: 95 ± 1.5% | ligand bias at hCB1R (∆∆LogR), in words [15]: bias for the inhibition of cAMP relative to βarrestin2 | EC50 [6]: > 10000 nM | Emax [6]: 15 ± 2.5% | anti-nociceptive effect (tail flick latency), in words ([7]; 3 and 10 mg/kg i.p.): anti-nociceptive | anti-nociceptive effect (tail flick latency), in words [7, 16]: dose-dependent increase in anti-nociceptive effects

CCCCCc1cc(O)c2c(c1)OC(C)(CCC=C(C)C)C=C2 (stereo not shown) [CBC, cannabichromene]
ligand bias at hCB2R (∆∆LogR), in words [1]: bias for inhibition of cAMP relative to βarrestin2 | Ki [8]: 11 nM | extent of [^3H]CP55,940 displacement from hCB1R, in words [8]: partially displaced | hCB1R Emin [8]: 55 ± 3.7*^ % | Emax [9]: 68 ± 9.7% | EC50 [9, 17]: 190 nM | hCB2R Emin [3]: 9.7 ± 5.9 % | extent of [^3H]CP55,940 displacement from hCB2R, in words [3]: displaced [^3H]CP55,940 from hCB2R to an extent that was not different from CP55,940 | total locomotion in the OFT, in words [14, 18]: Hypolocomotive responses | Emax [11]: 6.9 ± 0.96% | EC50 [11, 19]: > 10000 nM | Emax [5]: 76 ± 5.4% | EC50 [5, 20]: 7.1 nM | ligand bias at hCB1R (∆∆LogR), in words [15]: bias for the inhibition of cAMP relative to βarrestin2 | Emax [6]: 12 ± 2.8% | EC50 [6, 21]: > 10000 nM | anti-nociceptive effect (tail flick latency), in words ([7]; 3 mg/kg i.p., 15 min post-injection): weak anti-nociceptive effect

CCCCCCC(C)(C)c1ccc([C@@H]2C[C@H](O)CC[C@H]2CCCO)c(O)c1 [CP55,940, reference compound]
hCB1R Emin [8]: 0.0 ± 5.2% | effect on body temperature, in words ([2]; 0.1 mg/kg i.p.): decreased body temperature | hCB2R Emin [3]: 0.0 ± 6.2% | total locomotion in the OFT, in words ([14]; 0.1 mg/kg i.p., 1 h post-injection): reduced total locomotion | cataleptic response, % of maximum possible effect (MPE) ([4]; 0.1 mg/kg i.p.): 25% | anti-nociceptive effect (tail flick latency), in words ([7]; 0.1 mg/kg i.p., 15 min post-injection): anti-nociceptive effects

CCCc1cc(O)c2c(c1)OC(C)(C)[C@@H]1CCC(C)=C[C@@H]21 [THCV, ∆^9-tetrahydrocannabivarin]
Ki [8]: 22 nM | extent of [^3H]CP55,940 displacement from hCB1R, in words [8]: partially displaced | hCB1R Emin [8]: 54 ± 4.1*^ % | Ki [12]: 47 nM | effect on body temperature, in words ([2]; 10 mg/kg i.p.): decreased body temperature; also recorded: hypothermic | agonist activity in hCB1R cAMP inhibition, in words [9]: weak partial agonist response | Emax [9]: 59 ± 3.9% | EC50 [9, 17]: 260 nM | hCB2R Emin [3]: 27 ± 9.5% | extent of [^3H]CP55,940 displacement from hCB2R, in words [3]: displaced [^3H]CP55,940 from hCB2R to an extent that was not different from CP55,940 | time in the central quadrant of the OFT (modelled anxiolytic effect), in words ([13]; 3 and 10 mg/kg i.p.): anxiolytic | total locomotion in the OFT, in words ([14]; 3 and 10 mg/kg i.p.): hypolocomotive | Emax [11]: 0.05 ± 2.1% | EC50 [11, 19]: > 10000 nM | cataleptic response, % of maximum possible effect (MPE) ([4]; 10 mg/kg i.p.): 39% | EC50 [5]: 280 nM | agonist activity in hCB2R cAMP inhibition, in words [5]: agonist | Emax [5]: 79 ± 1.3% | EC50 [6]: > 10000 nM | activity in hCB2R βarrestin2 recruitment, in words [6]: demonstrable efficacy at hCB2R in the βarrestin2 recruitment assay, but with very low potency; also recorded: agonist | Emax [6]: 50 ± 6.8% | anti-nociceptive effect (tail flick latency), in words ([7]; 3 and 10 mg/kg i.p.): anti-nociceptive | anti-nociceptive effect (tail flick latency), in words [7, 16]: dose-dependent increase in anti-nociceptive effects

C=C(C)[C@@H]1CCC(C)=C[C@H]1c1c(O)cc(CCCCC)c(C(=O)O)c1O [CBDa, cannabidiolic acid]
ligand bias at hCB2R (∆∆LogR), in words [1]: bias for inhibition of cAMP relative to βarrestin2 | Ki [8]: > 10000 nM | extent of [^3H]CP55,940 displacement from hCB1R, in words [8]: weakly displaced [^3H]CP55,940 at concentrations ≥ 1 µM | hCB1R Emin [8]: 96 ± 6.5*^ % | Ki [12]: 12 nM | Emax [9]: 22 ± 1.1% | EC50 [9, 17]: 30 nM | hCB2R Emin [3]: 30 ± 7.8 % | extent of [^3H]CP55,940 displacement from hCB2R, in words [3]: displaced [^3H]CP55,940 from hCB2R to an extent that was not different from CP55,940 | total locomotion in the OFT, in words [14, 18]: Hypolocomotive responses | Emax [11]: 0.1 ± 0.11% | EC50 [11, 19]: > 10000 nM | Emax [5]: 32 ± 4.2% | EC50 [5, 20]: 140 nM | ligand bias at hCB1R (∆∆LogR), in words [15]: bias for the inhibition of cAMP relative to βarrestin2 | Emax [6]: 18 ± 2.5% | EC50 [6, 21]: > 10000 nM

C=C(C)[C@@H]1CCC(C)=C[C@H]1c1c(O)cc(CCC)cc1O [CBDV, cannabidivarin]
ligand bias at hCB2R (∆∆LogR), in words [1]: bias for inhibition of cAMP relative to βarrestin2 | Ki [8]: > 10000 nM | extent of [^3H]CP55,940 displacement from hCB1R, in words [8]: weakly displaced [^3H]CP55,940 at concentrations ≥ 1 µM | hCB1R Emin [8]: 96 ± 5.1*^ % | Ki [12]: 140 nM | Emax [9]: 68 ± 5.7% | EC50 [9, 17]: > 10000 nM | in vivo responses in the tetrad assays, in words ([10]; doses tested 0.1–10 mg/kg i.p.): no significant in vivo responses | hCB2R Emin [3]: 22 ± 9.3 % | extent of [^3H]CP55,940 displacement from hCB2R, in words [3]: displaced [^3H]CP55,940 from hCB2R to an extent that was not different from CP55,940 | Emax [11]: 0.96 ± 0.75% | EC50 [11, 19]: > 10000 nM | Emax [5]: 51 ± 12% | EC50 [5, 20]: 5 nM | activity in hCB2R βarrestin2 recruitment, in words [6]: demonstrable efficacy at hCB2R in the βarrestin2 recruitment assay, but with very low potency | Emax [6]: 64 ± 13% | EC50 [6, 21]: > 10000 nM
